Source: ChEMBL document CHEMBL3044607, “Quantitative structureactivity relationships of imidacloprid and its analogs with substituents at the C5 position on the pyridine ring in the neuroblocking activity” (J Pestic Sci, 2006)

System: Periplaneta americana
Assay: Insecticidal activity against Periplaneta americana (American cockroach) assessed as neuroblocking concentration
Assay type: functional

| SMILES | log(1/BC) |
| --- | --- |
| O=[N+]([O-])/N=C1\NCCN1Cc1cnc(Cl)c(Br)c1 | 5.51 |
| O=[N+]([O-])/N=C1\NCCN1Cc1cnc(Cl)c(I)c1 | 5.3 |
| COc1cc(CN2CCN/C2=N\[N+](=O)[O-])cnc1Cl | 4.98 |
| CCOc1cc(CN2CCN/C2=N\[N+](=O)[O-])cnc1Cl | 4.66 |
| CCCOc1cc(CN2CCN/C2=N\[N+](=O)[O-])cnc1Cl | 4.56 |
| CC(C)Oc1cc(CN2CCN/C2=N\[N+](=O)[O-])cnc1Cl | 4.46 |
| CCCCOc1cc(CN2CCN/C2=N\[N+](=O)[O-])cnc1Cl | 4.58 |
| CCCCCOc1cc(CN2CCN/C2=N\[N+](=O)[O-])cnc1Cl | 3.59 |
| Cc1cc(CN2CCN/C2=N\[N+](=O)[O-])cnc1Cl | 5.25 |
| CCc1cc(CN2CCN/C2=N\[N+](=O)[O-])cnc1Cl | 4.66 |
| CCCc1cc(CN2CCN/C2=N\[N+](=O)[O-])cnc1Cl | 4.51 |
| CCCCc1cc(CN2CCN/C2=N\[N+](=O)[O-])cnc1Cl | 3.79 |
| O=[N+]([O-])/N=C1\NCCN1Cc1cnc(Cl)c(-c2ccccc2)c1 | 4.46 |
| O=[N+]([O-])/N=C1\NCCN1Cc1cnc(Cl)c(C(F)(F)F)c1 | 4.43 |
| COC(=O)c1cc(CN2CCN/C2=N\[N+](=O)[O-])cnc1Cl | 3.92 |
| N#Cc1cc(CN2CCN/C2=N\[N+](=O)[O-])cnc1Cl | 4.59 |
| O=[N+]([O-])/N=C1\NCCN1Cc1cnc(Cl)c([N+](=O)[O-])c1 | 3.6 |
| [N-]=[N+]=Nc1cc(CN2CCN/C2=N\[N+](=O)[O-])cnc1Cl [5-AZIDOIMIDACLOPRID] | 4.98 |
| O=[N+]([O-])/N=C1\NCCN1Cc1cnc(Cl)c(Cl)c1 [5-CHLOROIMIDACLOPRID] | 5.61 |
| O=[N+]([O-])/N=C1/NCCN1Cc1cnc(Cl)c(F)c1 [5-FLUOROIMIDACLOPRID] | 5.99 |
| O=[N+]([O-])/N=C1\NCCN1Cc1ccc(Cl)nc1 [IMIDACLOPRID] | 5.7 |
